# Results reported in patent EP1048659A1, “RETINOID RECEPTOR AGONISTS” (Institute of Medicinal Molecular Design, Inc., priority 1997, dated 1999).
# Values joined by “and” are separate entries in the source; they are usually repeats but may differ in a detail not shown here. Identical values can stand only once.
# System: Promyelocytic leukemia cell strain HL-60
# Assay: HL-60 cell differentiation induction (morphological change, NBT reduction), each compound alone and with coexisting retinoid Am80
# Format: cell-based
# Conditions: for Ratio of differentiation-induced cells with coexistence of 1×10^-9 Am80: Table 1; for Ratio of differentiation-induced cells with coexistence of 1×10^-10 Am80: Table 2; for Ratio of differentiation-induced cells with coexistence of 3×10^-9 Am80: Table 3; for cell differentiation ability of the compound per se: compound used alone; for effect on the activity of the coexisting Am80 at a high concentration: compound at 1×10^-6 M; for ratios of differentiated cells, Coexisting retinoid (concentration) Am80 (-9): compound fixed at 1×10^-6 M with Am80 (-9); for ratios of differentiated cells, Coexisting retinoid (concentration) Am80 (-9.5): compound fixed at 1×10^-6 M with Am80 (-9.5); for ratios of differentiated cells, Coexisting retinoid (concentration) Am80 (-10): compound fixed at 1×10^-6 M with Am80 (-10); for ratios of differentiated cells, Coexisting retinoid (concentration) None: compound fixed at 1×10^-6 M, alone
# Procedure: Cell differentiation-inducing activity of each compound of the present invention used alone, and effect on cell differentiation-inducing activity of coexisting retinoid were examined. As a comparative or coexisting retinoid, Am80 ([4-[(5,6,7,8-tetrahydro-5,5,8,8-tetramethyl-2-naphthalenyl)carbamoyl]benzoic acid] was used. Promyelocytic leukemia cell strain HL-60 was used, and differentiation into granulocytic cells was determined by observing morphological change and measuring ability to reduce nitroblue tetrazolium (NBT). The ratios of differentiated cells shown in the following tables were calculated from the ability to reduce NBT. (A) Concentration-dependent differentiation-inducing ability of each compound alone and concentration-dependent effect on the differentiation-inducing ability of 1×10^-9 M Am80 were measured. […] Table 1 (B) Concentration-dependent differentiation-inducing ability of each compound alone and concentration-dependent effect on the differentiation inducing ability of 1×10^-10 M Am80 were measured. […] Table 2 (C) Concentration-dependent differentiation-inducing ability of each compound alone and concentration-dependent effect on the differentiation inducing ability of 3×10^-9 M Am80 were measured.
# [1] = (A) 1×10^-9 M Am80, enhancement at a concentration which did not give the cell differentiation-inducing ability, result in words
# [2] = compound concentration -7, with 1×10^-9 M Am80
# [3] = compound concentration -8, with 1×10^-9 M Am80
# [4] = (B) 1×10^-10 M Am80, result in words
# [5] = compound concentration -6, with 1×10^-10 M Am80
# [6] = compound concentration -7, with 1×10^-10 M Am80
# [7] = compound concentration -8, with 1×10^-10 M Am80
# [8] = compound concentration -6, with 1×10^-9 M Am80
# [9] = compound concentration -6, with 3×10^-9 M Am80
# [10] = compound concentration -7, with 3×10^-9 M Am80
# [11] = compound concentration -8, with 3×10^-9 M Am80
structure (smiles),measurement,setting,value
"CC1(C)CCC(C)(C)c2cc(NC(=O)c3ccc(C(=O)O)cc3)ccc21 [Am80, 4-[(5,6,7,8-tetrahydro-5,5,8,8-tetramethyl-2-naphthalenyl)carbamoyl]benzoic acid, reference compound]",Ratio of differentiation-induced cells with coexistence of 1×10^-9 Am80,"test compound concentration None: 1×10^-9 M Am80 alone, control",49% and 37% and 48%
same,Ratio of differentiation-induced cells with coexistence of 1×10^-10 Am80,"test compound concentration None: 1×10^-10 M Am80 alone, control",4% and 11%
same,Ratio of differentiation-induced cells with coexistence of 3×10^-9 Am80,"test compound concentration None: 3×10^-9 M Am80 alone, control",44 and 51
same,"ratios of differentiated cells, Am80 (-9)","Table 4, Compound None: Am80 alone at -9",80
same,"ratios of differentiated cells, Am80 (-9.5)","Table 4, Compound None: Am80 alone at -9.5",53
same,"ratios of differentiated cells, Am80 (-10)","Table 4, Compound None: Am80 alone at -10",8.5
C/C(=C\c1ccc(/C=C2\SC(=O)NC2=O)cc1)c1ccc2c(c1)C(C)(C)CCC2(C)C [TZ91],effect on the activity of the coexisting Am80,[1],enhanced the activity of the coexisting Am80
same,Ratio of differentiation-induced cells with coexistence of 1×10^-9 Am80,[2],87%
same,Ratio of differentiation-induced cells with coexistence of 1×10^-9 Am80,[3],62%
same,Ratio of differentiation-induced cells with coexistence of 1×10^-9 Am80,"compound concentration -9, with 1×10^-9 M Am80",58%
same,cell differentiation ability of the compound per se,result in words,had cell differentiation ability
"O=C1NC(=O)/C(=C/c2cccc(C(=O)NCc3ccc(C(F)(F)F)cc3)c2)S1 [TZ105, reference compound]",effect on the activity of the coexisting retinoid Am80,"(E) comparison N-benzyl derivative, concentrations not given, result in words",failed to effect the activity of the coexisting retinoid Am80
same,cell differentiation ability of the compound per se,result in words,completely inactive
CC(C)(C)c1cc(C(=O)Nc2ccc(/C=C3\SC(=O)NC3=O)cc2)cc(C(C)(C)C)c1 [TZ151],effect on the activity of the coexisting Am80,[4],enhanced the activity of the coexisting Am80
same,Ratio of differentiation-induced cells with coexistence of 1×10^-10 Am80,[5],83%
same,Ratio of differentiation-induced cells with coexistence of 1×10^-10 Am80,[6],43%
same,Ratio of differentiation-induced cells with coexistence of 1×10^-10 Am80,[7],12%
same,cell differentiation ability of the compound per se,result in words,had cell differentiation ability
CN(C(=O)c1cc(C(C)(C)C)cc(C(C)(C)C)c1)c1ccc(/C=C2\SC(=O)NC2=O)cc1 [TZ161],effect on the activity of the coexisting Am80 at a high concentration,[4],acted to suppress the activity
same,effect on the activity of the coexisting Am80,[4],enhanced the activity of the coexisting Am80
same,Ratio of differentiation-induced cells with coexistence of 1×10^-10 Am80,[5],3.8%
same,Ratio of differentiation-induced cells with coexistence of 1×10^-10 Am80,[6],25%
same,Ratio of differentiation-induced cells with coexistence of 1×10^-10 Am80,[7],12%
same,cell differentiation ability of the compound per se,result in words,inactive
CC1(C)CCC(C)(C)c2cc(C(=O)Nc3ccc(/C=C4\SC(=O)NC4=O)cc3)ccc21 [TZ181],effect on the activity of the coexisting Am80,[1],enhanced the activity of the coexisting Am80
same,Ratio of differentiation-induced cells with coexistence of 1×10^-9 Am80,[8],6%
same,Ratio of differentiation-induced cells with coexistence of 1×10^-9 Am80,[2],58%
same,Ratio of differentiation-induced cells with coexistence of 1×10^-9 Am80,[3],53%
same,cell differentiation ability of the compound per se,result in words,had cell differentiation ability
CN(C(=O)c1ccc2c(c1)C(C)(C)CCC2(C)C)c1ccc(/C=C2\SC(=O)NC2=O)cc1 [TZ191],effect on the activity of the coexisting Am80 at a high concentration,[4],acted to suppress the activity
same,effect on the activity of the coexisting Am80,[4],enhanced the activity of the coexisting Am80
same,Ratio of differentiation-induced cells with coexistence of 1×10^-10 Am80,[5],28%
same,Ratio of differentiation-induced cells with coexistence of 1×10^-10 Am80,[6],75%
same,Ratio of differentiation-induced cells with coexistence of 1×10^-10 Am80,[7],63%
same,cell differentiation ability of the compound per se,result in words,inactive
CN1c2ccccc2N=C(c2ccc(/C=C3\SC(=O)NC3=O)cc2)c2cc3c(cc21)C(C)(C)CCC3(C)C [TZ201],effect on the activity of the coexisting Am80,[1],suppressed the activity of the coexisting Am80
same,Ratio of differentiation-induced cells with coexistence of 1×10^-9 Am80,[8],5%
same,Ratio of differentiation-induced cells with coexistence of 1×10^-9 Am80,[2],53%
same,Ratio of differentiation-induced cells with coexistence of 1×10^-9 Am80,[3],64%
same,cell differentiation ability of the compound per se,result in words,inactive
CC1(C)CCC(C)(C)c2cc(C(=O)c3ccc(/C=C4\SC(=O)NC4=O)cc3)ccc21 [TZ221],Ratio of differentiation-induced cells with coexistence of 3×10^-9 Am80,[9],82
same,Ratio of differentiation-induced cells with coexistence of 3×10^-9 Am80,[10],67
same,Ratio of differentiation-induced cells with coexistence of 3×10^-9 Am80,[11],54
CC1(C)CCC(C)(C)c2cc(C(=O)c3cccc(/C=C4\SC(=O)NC4=O)c3)ccc21 [TZ223],"ratios of differentiated cells, Coexisting retinoid (concentration) Am80 (-9)",Table 4,62
same,"ratios of differentiated cells, Coexisting retinoid (concentration) Am80 (-9.5)",Table 4,22
same,"ratios of differentiated cells, Coexisting retinoid (concentration) Am80 (-10)",Table 4,5
same,"ratios of differentiated cells, Coexisting retinoid (concentration) None",Table 4,4.4
Cc1cc2c(cc1C(=O)c1cccc(/C=C3\SC(=O)NC3=O)c1)C(C)(C)CCC2(C)C [TZ227],"ratios of differentiated cells, Coexisting retinoid (concentration) Am80 (-9)",Table 4,11.7
same,"ratios of differentiated cells, Coexisting retinoid (concentration) Am80 (-9.5)",Table 4,5.5
same,"ratios of differentiated cells, Coexisting retinoid (concentration) Am80 (-10)",Table 4,7
same,"ratios of differentiated cells, Coexisting retinoid (concentration) None",Table 4,5.3
C=C(c1ccc(/C=C2\SC(=O)NC2=O)cc1)c1ccc2c(c1)C(C)(C)CCC2(C)C [TZ241],Ratio of differentiation-induced cells with coexistence of 3×10^-9 Am80,[9],92
same,Ratio of differentiation-induced cells with coexistence of 3×10^-9 Am80,[10],84
same,Ratio of differentiation-induced cells with coexistence of 3×10^-9 Am80,[11],76
C=C(c1cccc(/C=C2\SC(=O)NC2=O)c1)c1ccc2c(c1)C(C)(C)CCC2(C)C [TZ243],"ratios of differentiated cells, Coexisting retinoid (concentration) Am80 (-9)",Table 4,77
same,"ratios of differentiated cells, Coexisting retinoid (concentration) Am80 (-9.5)",Table 4,35
same,"ratios of differentiated cells, Coexisting retinoid (concentration) Am80 (-10)",Table 4,5
same,"ratios of differentiated cells, Coexisting retinoid (concentration) None",Table 4,4.2
C=C(c1ccc(/C=C2\SC(=O)NC2=O)cc1)c1cc2c(cc1C)C(C)(C)CCC2(C)C [TZ245],Ratio of differentiation-induced cells with coexistence of 3×10^-9 Am80,[9],88
same,Ratio of differentiation-induced cells with coexistence of 3×10^-9 Am80,[10],89
same,Ratio of differentiation-induced cells with coexistence of 3×10^-9 Am80,[11],86
C=C(c1cccc(/C=C2\SC(=O)NC2=O)c1)c1cc2c(cc1C)C(C)(C)CCC2(C)C [TZ247],"ratios of differentiated cells, Coexisting retinoid (concentration) Am80 (-9)",Table 4,10
same,"ratios of differentiated cells, Coexisting retinoid (concentration) Am80 (-9.5)",Table 4,5.8
same,"ratios of differentiated cells, Coexisting retinoid (concentration) Am80 (-10)",Table 4,6.4
same,"ratios of differentiated cells, Coexisting retinoid (concentration) None",Table 4,7
CC1(C)CCC(C)(C)c2cc(Nc3ccc(/C=C4\SC(=O)NC4=O)cc3)ccc21 [TZ321],Ratio of differentiation-induced cells with coexistence of 3×10^-9 Am80,[9],88
same,Ratio of differentiation-induced cells with coexistence of 3×10^-9 Am80,[10],83
same,Ratio of differentiation-induced cells with coexistence of 3×10^-9 Am80,[11],55
CN(c1ccc(/C=C2\SC(=O)NC2=O)cc1)c1ccc2c(c1)C(C)(C)CCC2(C)C [TZ325],Ratio of differentiation-induced cells with coexistence of 3×10^-9 Am80,[9],79
same,Ratio of differentiation-induced cells with coexistence of 3×10^-9 Am80,[10],83
same,Ratio of differentiation-induced cells with coexistence of 3×10^-9 Am80,[11],72
